Reference: ChEMBL document CHEMBL1146651, “Selective urokinase-type plasminogen activator (uPA) inhibitors. Part 3: 1-isoquinolinylguanidines” (Bioorg Med Chem Lett, 2004)

How the values were obtained:
[1] = molecular target: T1, Tissue-type plasminogen activator (Homo sapiens, UniProt P00750); assay: Inhibitory activity against human tissue type plasminogen activator was evaluated using S-2444 as substrate and tissue plasminogen activator stimulator at […]
Target sequence in this assay (P00750 36-562 limits assumed): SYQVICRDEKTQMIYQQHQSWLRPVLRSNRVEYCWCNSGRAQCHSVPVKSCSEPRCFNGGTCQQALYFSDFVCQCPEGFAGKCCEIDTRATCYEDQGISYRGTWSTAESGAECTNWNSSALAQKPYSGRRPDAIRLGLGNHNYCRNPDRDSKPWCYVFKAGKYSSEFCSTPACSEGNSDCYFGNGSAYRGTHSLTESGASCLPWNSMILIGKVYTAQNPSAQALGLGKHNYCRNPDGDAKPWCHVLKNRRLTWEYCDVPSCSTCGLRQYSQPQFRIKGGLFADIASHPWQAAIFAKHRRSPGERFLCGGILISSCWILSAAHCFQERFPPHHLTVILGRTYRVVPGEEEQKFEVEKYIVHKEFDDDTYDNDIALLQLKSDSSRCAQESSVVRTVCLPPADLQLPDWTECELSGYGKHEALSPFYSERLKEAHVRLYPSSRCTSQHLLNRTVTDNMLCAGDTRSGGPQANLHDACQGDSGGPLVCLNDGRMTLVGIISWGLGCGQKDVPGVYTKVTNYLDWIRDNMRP

[2] = molecular target: Urokinase-type plasminogen activator (Homo sapiens, UniProt P00749)
[3] = molecular target: T2, Plasminogen (Homo sapiens, UniProt P00747); assay: Inhibitory activity against human plasmin was evaluated using chromozym-PL as substrate at 100 mM
[4] = molecular target: T2, Plasminogen; assay: Inhibitory activity of 3 uM compound against plasmin was evaluated using chromozym-PL as substrate
[5] = molecular target: T1, Tissue-type plasminogen activator; assay: Inhibitory activity against human tissue type plasminogen activator using S-2444
Target sequence in this assay (P00750 whole entry): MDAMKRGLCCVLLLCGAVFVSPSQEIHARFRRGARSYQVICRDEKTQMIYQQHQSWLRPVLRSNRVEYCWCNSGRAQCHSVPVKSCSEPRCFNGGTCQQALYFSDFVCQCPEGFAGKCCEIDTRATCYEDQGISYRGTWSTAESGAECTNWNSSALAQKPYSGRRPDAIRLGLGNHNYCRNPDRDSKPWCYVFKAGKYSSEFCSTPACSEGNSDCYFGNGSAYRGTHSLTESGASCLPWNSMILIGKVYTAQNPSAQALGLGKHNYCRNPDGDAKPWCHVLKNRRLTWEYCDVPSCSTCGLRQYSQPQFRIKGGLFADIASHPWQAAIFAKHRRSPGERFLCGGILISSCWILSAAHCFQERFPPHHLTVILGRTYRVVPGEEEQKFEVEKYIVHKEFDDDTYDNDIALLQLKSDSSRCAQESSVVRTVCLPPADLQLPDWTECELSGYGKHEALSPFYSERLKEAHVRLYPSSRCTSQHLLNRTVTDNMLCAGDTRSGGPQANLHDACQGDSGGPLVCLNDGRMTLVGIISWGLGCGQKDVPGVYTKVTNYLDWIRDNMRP

[6] = molecular target: T2, Plasminogen; assay: Inhibition of human plasmin activity with chromozym-PL as substrate
[7] = molecular target: T2, Plasminogen; assay: (§1) Inhibitory activity against human plasmin was evaluated using chromozym-PL as substrate at 1 mM
[8] = molecular target: T1, Tissue-type plasminogen activator; assay: Inhibitory activity against human tissue plasminogen activator was evaluated using S-2444 as substrate and tissue plasminogen activator stimulator at 1 mM
Target sequence in this assay (P00750 36-562 limits assumed): as the sequence (P00750 36-562 limits assumed) above

[9] = molecular target: T2, Plasminogen; assay: Inhibitory activity against human plasmin was evaluated using chromozym-PL as substrate at 300 mM
[10] = molecular target: T2, Plasminogen; assay: Inhibitory activity of 30 uM compound against plasmin was evaluated using chromozym-PL as substrate
[11] = molecular target: T2, Plasminogen; assay: Inhibitory activity against human plasmin was evaluated using chromozym-PL as substrate at 10 uM
[12] = molecular target: T1, Tissue-type plasminogen activator; assay: Inhibitory activity against human tissue plasminogen activator was evaluated using S-2444 as substrate and tissue plasminogen activator stimulator at 30 uM
Target sequence in this assay (P00750 36-562 limits assumed): as above

[13] = molecular target: T2, Plasminogen; assay: as §1; remark: listed apart in the source

T2 sequence (P00747 97-580 limits assumed): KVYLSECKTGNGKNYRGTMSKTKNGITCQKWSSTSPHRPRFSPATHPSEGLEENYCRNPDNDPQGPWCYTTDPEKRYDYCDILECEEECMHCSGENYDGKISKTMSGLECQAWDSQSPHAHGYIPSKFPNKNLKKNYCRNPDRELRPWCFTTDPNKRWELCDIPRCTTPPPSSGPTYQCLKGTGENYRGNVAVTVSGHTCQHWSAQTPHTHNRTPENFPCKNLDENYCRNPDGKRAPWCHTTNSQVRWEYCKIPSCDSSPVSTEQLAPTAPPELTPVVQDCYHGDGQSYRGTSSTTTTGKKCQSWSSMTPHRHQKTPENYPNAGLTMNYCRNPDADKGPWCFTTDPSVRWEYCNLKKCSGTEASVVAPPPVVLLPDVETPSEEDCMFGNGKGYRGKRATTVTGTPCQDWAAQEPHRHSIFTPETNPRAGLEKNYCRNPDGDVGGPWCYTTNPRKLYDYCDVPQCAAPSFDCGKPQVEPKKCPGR
T2 sequence (P00747 581-810 limits assumed): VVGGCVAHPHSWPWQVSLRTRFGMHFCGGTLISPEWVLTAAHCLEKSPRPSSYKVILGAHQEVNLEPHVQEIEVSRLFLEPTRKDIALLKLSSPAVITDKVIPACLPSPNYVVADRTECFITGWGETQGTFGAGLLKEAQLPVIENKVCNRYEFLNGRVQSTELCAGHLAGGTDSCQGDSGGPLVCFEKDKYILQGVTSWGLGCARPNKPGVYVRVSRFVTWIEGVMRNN

Row | inhibition [1] | Ki [2] | Ki [5] | Ki [6] | SMILES | also measured
1 | < 50% | 82 nM | – | – | N=C(N)Nc1ncc(Cl)c2ccc(-c3ccc(C(=O)O)cc3)cc12 | inhibition [4]: 65%
2 | – | 4930 nM | 140 µM | 238 µM | N=C(N)Nc1nccc2c(Br)cccc12 | –
3 | < 50% | – | – | – | N=C(N)Nc1nccc2ccc(C(=O)O)cc12 | inhibition [3]: < 50%
4 | < 50% | – | – | 3 µM | COc1ccc(-c2ccc3c(Cl)cnc(N=C(N)N)c3c2)cc1 | –
5 | – | 37 nM | – | – | NC(N)=Nc1ncc(Cl)c2ccc(-c3cccc(C(=O)O)c3)cc12 | –
6 | – | 490 nM | – | – | N#Cc1ccc(-c2ccc3c(Cl)cnc(N=C(N)N)c3c2)cc1 | –
7 | – | – | 15.5 µM | 14.5 µM | COc1ccccc1-c1ccc2c(Cl)cnc(N=C(N)N)c2c1 | –
8 | – | – | 159 µM | – | N=C(N)Nc1ncc(Br)c2ccccc12 | inhibition [7]: < 50%
9 | < 50% | 180 nM | – | – | COc1ccc(C#N)cc1-c1ccc2c(Cl)cnc(N=C(N)N)c2c1 | inhibition [10]: < 50%
10 | – | 300 nM | – | 4.1 µM | N#Cc1cccc(-c2ccc3c(Cl)cnc(N=C(N)N)c3c2)c1 | –
11 | – | 400 nM | 124 µM | 47.5 µM | NC(N)=Nc1nccc2ccc(-c3ccccc3)cc12 | –
12 | < 50% | – | – | – | N#Cc1cccc(-c2ccc3c(Cl)cnc(NC(=N)N)c3c2)c1 | –
13 | < 50% | – | – | – | N=C(N)Nc1ncc(Cl)c2ccc(-c3cccc(C(=O)O)c3)cc12 | inhibition [11]: < 50%
14 | < 50% | 83 nM | – | – | COc1cccc(-c2ccc3c(Cl)cnc(N=C(N)N)c3c2)c1 | –
15 | – | – | – | 12 µM | N=C(N)Nc1nccc2ccc(-c3ccc4c(c3)OCO4)cc12 | inhibition [8]: 55%
16 | < 50% | – | – | – | N#Cc1ccc(-c2ccc3c(Cl)cnc(NC(=N)N)c3c2)cc1 | inhibition [11]: 82%
17 | – | 4800 nM | 13 µM | – | N=C(N)Nc1nccc2ccc(OCc3ccccc3)cc12 | inhibition [3]: < 50%
18 | – | 130 nM | 19 µM | 7.3 µM | Cc1ccc(-c2ccc3c(Cl)cnc(N=C(N)N)c3c2)cc1 | –

Second part, the molecule before the results:

Row | SMILES | inhibition [1] | Ki [2] | Ki [5] | Ki [6] | also measured
19 | COc1ccc2ccnc(N=C(N)N)c2c1 | < 50% | 660 nM | – | – | inhibition [3]: < 50%
20 | N=C(N)Nc1nccc2ccc(CO)cc12 | < 50% | 1300 nM | – | – | inhibition [3]: 55%
21 | NC(N)=Nc1nccc2ccc(Br)cc12 | – | – | 95.1 µM | 50.8 µM | –
22 | NC(N)=Nc1nccc2c(OCc3ccccc3)cccc12 | – | – | 13 µM | – | –
23 | N=C(N)Nc1ccc2ccccc2n1 | – | – | – | – | inhibition [7]: < 50%
24 | N=C(N)Nc1nccc2c(OCc3ccccc3)cccc12 | – | – | – | – | inhibition [3]: < 50%
25 | NC(N)=Nc1nccc2cc(Br)ccc12 | – | – | – | 131 µM | –
26 | NC(N)=Nc1ccc2ccccc2n1 | – | 209000 nM | 367 µM | – | –
27 | COc1cccc2c(N=C(N)N)nccc12 | – | 3620 nM | – | – | inhibition [8]: < 50%; inhibition [9]: < 50%
28 | N=C(N)Nc1ncc(Cl)c2ccc(-c3ccc4c(c3)OCO4)cc12 | < 50% | 100 nM | – | 3.2 µM | –
29 | N=C(N)Nc1cc2ccccc2cn1 | – | – | – | – | inhibition [8]: < 50%; inhibition [7]: < 50%
30 | NC(N)=Nc1ncc(Cl)c2ccccc12 | – | 830 nM | 128 µM | – | –
31 | N=C(N)Nc1ncc(Cl)c2ccccc12 | – | – | – | – | inhibition [7]: < 50%
32 | N=C(N)Nc1nccc2cc(Br)ccc12 | – | – | – | – | inhibition [8]: < 50%
33 | COc1ccc(C(=O)O)cc1-c1ccc2c(Cl)cnc(N=C(N)N)c2c1 | < 50% | 9 nM | – | 4.75 µM | –
34 | N=C(N)Nc1ncc(Cl)c2ccc(-c3ccccc3)cc12 | – | – | – | – | inhibition [10]: < 50%; inhibition [12]: < 50%
35 | CC(O)c1ccc2ccnc(N=C(N)N)c2c1 (configuration not stated) | < 50% | 640 nM | – | 24 µM | –
36 | NC(N)=Nc1nccc2ccccc12 | – | 1920 nM | 126 µM | – | Ki [13]: 68 µM
37 | Cc1cnc(N=C(N)N)c2ccccc12 | < 50% | – | – | – | inhibition [3]: < 50%
38 | NC(N)=Nc1nccc2c(-c3ccccc3)cccc12 | – | > 100000 nM | 124 µM | 47.5 µM | –
39 | N=C(N)Nc1ccccn1 | – | 29000 nM | – | – | –
